One experiment concerns SARS-CoV-2 replicon. Briefly: microbe, parasite or virus in culture. Type of experiment: cell-based. As to conditions: read-out: Replicon EC50.
The test system of experiment [1] is human coronavirus (HCoV) 229E. Briefly: microbe, parasite or virus in culture. As to conditions: MRCS cells, HCoV 229E, 3 days, CellTiter Glo, read-out: 229E CPE EC50. Type of experiment: cell-based, human coronavirus 229E.
Setting [2] is: Severe acute respiratory syndrome coronavirus 2, Huh-7, 24 h.
Setting [3] is: unidentified human coronavirus, 72 h.

pEC50: −log10 of the molar value. Read-outs that look alike come from different tables or passages of the source.

For the molecule `CC(C)(C)[C@H](NS(=O)(=O)c1ccccc1)C(=O)N1C[C@H]2[C@@H]([C@H]1C(=O)N[C@H](C#N)C[C@@H]1CCNC1=O)C2(C)C` [Compound 95], the pEC50 is 7.43 in the experiment with SARS-CoV-2 replicon (setting [2]), 7.17 with SARS-CoV-2 replicon, 6.28 in experiment [1] and 6.45 in experiment [1] (setting [3]).
`COC(=O)NS(=O)(=O)N[C@H](C(=O)N1C[C@H]2[C@@H]([C@H]1C(=O)N[C@H](C#N)C[C@@H]1CCNC1=O)C2(C)C)C(C)(C)C` [Compound 97]: the pEC50 was below 5.00 in the experiment on SARS-CoV-2 replicon (setting [2]) and below 4.52 in experiment [1] (setting [3]).
In the case of `CC(C)(C)[C@H](NS(=O)(=O)C[C@]12CC[C@H](CC1=O)C2(C)C)C(=O)N1C[C@H]2[C@@H]([C@H]1C(=O)N[C@H](C#N)C[C@@H]1CCNC1=O)C2(C)C` [Compound 98], the pEC50 in the experiment on SARS-CoV-2 replicon (setting [2]) is 5.44; in experiment [1] (setting [3]), 5.48.
With `CC(C)(C)[C@H](NS(=O)(=O)c1ccc(F)c(F)c1)C(=O)N1C[C@H]2[C@@H]([C@H]1C(=O)N[C@H](C#N)C[C@@H]1CCNC1=O)C2(C)C` [Compound 99], the pEC50 in the experiment with SARS-CoV-2 replicon (setting [2]) was 7.06; in the experiment on SARS-CoV-2 replicon, 7.00; in experiment [1], 6.46; in experiment [1] (setting [3]) it was 6.57.
Take `COc1ccc(S(=O)(=O)N[C@H](C(=O)N2C[C@H]3[C@@H]([C@H]2C(=O)N[C@H](C#N)C[C@@H]2CCNC2=O)C3(C)C)C(C)(C)C)cc1` [Compound 101]: the pEC50 was 7.62 with SARS-CoV-2 replicon (setting [2]), 7.39 with SARS-CoV-2 replicon, 6.04 in experiment [1] and 6.29 in experiment [1] (setting [3]).
Turning to `CC(C)(C)[C@H](NC(=O)C(F)(F)F)C(=O)N1C[C@H]2[C@@H]([C@H]1C(=O)N[C@H](/C=C/C#N)C[C@@H]1CCNC1=O)C2(C)C` [Compound 103], the pEC50 in the experiment with SARS-CoV-2 replicon (setting [2]) was 6.19; in experiment [1] (setting [3]), 4.77.
On the same counts, the results for `CN(C)C(C)(C)C(=O)N[C@H](C(=O)N1C[C@H]2[C@@H]([C@H]1C(=O)N[C@H](C#N)C[C@@H]1CCNC1=O)C2(C)C)C(C)(C)C` [Compound 104] are below 5.00 and 4.90.
Regarding `CC1(C)[C@@H]2[C@@H](C(=O)N[C@H](C#N)C[C@@H]3CCNC3=O)N(C(=O)[C@@H](NC(=O)C(F)(F)F)c3ccc(F)cc3)C[C@@H]21` [Compound 105], the pEC50 in the experiment on SARS-CoV-2 replicon (setting [2]) was 6.19; in experiment [1] (setting [3]), 5.21.
The matching figures for `CC(C)(C)[C@H](NC(=O)c1ccc2ccccc2c1)C(=O)N1C[C@H]2[C@@H]([C@H]1C(=O)N[C@H](C#N)C[C@@H]1CCNC1=O)C2(C)C` [Compound 106]: 6.07 and 5.40.
The matching figures for `CC(C)(C)[C@H](NC(=O)c1ccccn1)C(=O)N1C[C@H]2[C@@H]([C@H]1C(=O)N[C@H](C#N)C[C@@H]1CCNC1=O)C2(C)C` [Compound 107]: 5.42 and 4.63.
For `CC(C)(C)[C@H](NC(=O)c1ccc(F)c(F)c1)C(=O)N1C[C@H]2[C@@H]([C@H]1C(=O)N[C@H](C#N)C[C@@H]1CCNC1=O)C2(C)C` [Compound 108], the negative-log EC50 (pEC50) is 6.48 with SARS-CoV-2 replicon (setting [2]) and 5.41 in experiment [1] (setting [3]).
Turning to `CC(C)(C)[C@H](NC(=S)N1CCCCC1)C(=O)N1C[C@H]2[C@@H]([C@H]1C(=O)N[C@H](C#N)C[C@@H]1CCNC1=O)C2(C)C` [Compound 109], the values for the negative logarithm of the EC50 (pEC50) (in the experiment on SARS-CoV-2 replicon (setting [2]); in experiment [1] (setting [3])) were 6.06 and 6.01, respectively.
The matching figures for `CC(C)[C@H]1CC[C@H](C)C[C@@H]1OCC(=O)N[C@H](C(=O)N1C[C@H]2[C@@H]([C@H]1C(=O)N[C@H](C#N)C[C@@H]1CCNC1=O)C2(C)C)C(C)(C)C` [Compound 110]: 5.87 and 4.63.
With `CC(C)(C)[C@H](NS(=O)(=O)c1cc2ccccc2s1)C(=O)N1C[C@H]2[C@@H]([C@H]1C(=O)N[C@H](C#N)C[C@@H]1CCNC1=O)C2(C)C` [Compound 111], the pEC50 in the experiment on SARS-CoV-2 replicon (setting [2]) was 8.47; in the experiment on SARS-CoV-2 replicon, 8.34; in experiment [1] (setting [3]), 6.89.
Consider `CC(C)(C)[C@H](NC(=O)C1(CS(=O)(=O)C(C)(C)C)CCCCC1)C(=O)N1C[C@H]2[C@@H]([C@H]1C(=O)N[C@H](C#N)C[C@@H]1CCNC1=O)C2(C)C` [Compound 115], for which the negative logarithm of the EC50 (pEC50) was 5.52 in the experiment with SARS-CoV-2 replicon (setting [2]) and below 4.52 in experiment [1] (setting [3]).
Turning to `CN(C)[C@@H]1C[C@@H](C(=O)N[C@H](C#N)C[C@@H]2CCNC2=O)N(C(=O)[C@@H](NC(=O)C(F)(F)F)C(C)(C)C)C1` [Compound 116], the results for the negative logarithm of the EC50 (pEC50) (in the experiment on SARS-CoV-2 replicon (setting [2]); in experiment [1] (setting [3])) were 6.13 and below 4.52, respectively.
On the same counts, the results for `CC(C)(C)[C@H](NC(=O)c1cccc2ccccc12)C(=O)N1C[C@H]2[C@@H]([C@H]1C(=O)N[C@H](C#N)C[C@@H]1CCNC1=O)C2(C)C` [Compound 119] are 6.47 and 6.26.
As for `CC(C)(C)[C@H](NC(=O)c1ccc2c(c1)CCC2)C(=O)N1C[C@H]2[C@@H]([C@H]1C(=O)N[C@H](C#N)C[C@@H]1CCNC1=O)C2(C)C` [Compound 120], the pEC50 in the experiment with SARS-CoV-2 replicon (setting [2]) is 5.65; in experiment [1] (setting [3]) it was 5.33.
Consider `CC(C)(C)[C@H](NS(=O)(=O)c1ccns1)C(=O)N1C[C@H]2[C@@H]([C@H]1C(=O)N[C@H](C#N)C[C@@H]1CCNC1=O)C2(C)C` [Compound 122], for which the pEC50 in the experiment with SARS-CoV-2 replicon (setting [2]) was 7.33; in the experiment on SARS-CoV-2 replicon it was 7.21; in experiment [1] (setting [3]) it was 6.83.
With `CC(C)(C)[C@H](NC(=S)NC1CC(F)(F)C1)C(=O)N1C[C@H]2[C@@H]([C@H]1C(=O)N[C@H](C#N)C[C@@H]1CCNC1=O)C2(C)C` [Compound 123], the pEC50 in the experiment with SARS-CoV-2 replicon (setting [2]) was 6.10; in experiment [1] (setting [3]), 6.15.
Take `CC(C)(C)[C@H](NC(=S)NC1CCC1)C(=O)N1C[C@H]2[C@@H]([C@H]1C(=O)N[C@H](C#N)C[C@@H]1CCNC1=O)C2(C)C` [Compound 124]: the results for the negative-log EC50 (pEC50) (in the experiment with SARS-CoV-2 replicon (setting [2]); in experiment [1] (setting [3])) were 6.30 and 6.10, respectively.
On the same counts, the results for `CC(C)(C)[C@H](NC(=S)NC1CCC1)C(=O)N1C[C@H]2[C@@H]([C@H]1C(=O)N[C@H](C#N)C[C@@H]1CCN(C(=O)C(F)(F)F)C1=O)C2(C)C` [Compound 125] are 7.17 and 6.15.
On the same counts, the results for `CC1(NC(=S)N[C@H](C(=O)N2C[C@H]3[C@@H]([C@H]2C(=O)N[C@H](C#N)C[C@@H]2CCNC2=O)C3(C)C)C(C)(C)C)CC1` [Compound 126] are 7.62 and 6.71.
On the same counts, the results for `CNC(=O)N[C@H](C(=O)N1C[C@H](N(C)C)C[C@H]1C(=O)N[C@H](C#N)C[C@@H]1CCNC1=O)C(C)(C)C` [Compound 128] are below 5.00 and below 4.52.
`COC(=O)N[C@H](C(=O)N1C[C@H](N(C)C)C[C@H]1C(=O)N[C@H](C#N)C[C@@H]1CCNC1=O)C(C)(C)C` [Compound 129]: the pEC50 in the experiment with SARS-CoV-2 replicon (setting [2]) is 5.16; in experiment [1] (setting [3]) it was below 4.52.
Regarding `COc1ccccc1S(=O)(=O)N[C@H](C(=O)N1C[C@H]2[C@@H]([C@H]1C(=O)N[C@H](C#N)C[C@@H]1CCNC1=O)C2(C)C)C(C)(C)C` [Compound 130], the pEC50 with SARS-CoV-2 replicon (setting [2]) is 7.03; in the experiment with SARS-CoV-2 replicon it was 6.89; in experiment [1] it was 5.91; in experiment [1] (setting [3]), 5.96.
Take `C=CCS(=O)(=O)N[C@H](C(=O)N1C[C@H]2[C@@H]([C@H]1C(=O)N[C@H](C#N)C[C@@H]1CCNC1=O)C2(C)C)C(C)(C)C` [Compound 131]: the negative-log EC50 (pEC50) is 6.92 with SARS-CoV-2 replicon (setting [2]), 6.74 in the experiment on SARS-CoV-2 replicon and 6.18 in experiment [1] (setting [3]).
On to `CC(C)(C)[C@H](NS(=O)(=O)CC#N)C(=O)N1C[C@H]2[C@@H]([C@H]1C(=O)N[C@H](C#N)C[C@@H]1CCNC1=O)C2(C)C` [Compound 132], for which the pEC50 in the experiment with SARS-CoV-2 replicon (setting [2]) was 7.19; in the experiment on SARS-CoV-2 replicon it was 7.12; in experiment [1], 6.23; in experiment [1] (setting [3]), 6.23.
As to `CC(C)c1cc(C(C)C)c(S(=O)(=O)N[C@H](C(=O)N2C[C@H]3[C@@H]([C@H]2C(=O)N[C@H](C#N)C[C@@H]2CCNC2=O)C3(C)C)C(C)(C)C)c(C(C)C)c1` [Compound 134], the negative logarithm of the EC50 (pEC50) in the experiment with SARS-CoV-2 replicon (setting [2]) is 5.10; with SARS-CoV-2 replicon it was below 5.00; in experiment [1] (setting [3]) it was below 4.52.
As for `CC(C)(C)[C@H](NS(=O)(=O)c1cc2c(s1)CCCC2)C(=O)N1C[C@H]2[C@@H]([C@H]1C(=O)N[C@H](C#N)C[C@@H]1CCNC1=O)C2(C)C` [Compound 135], the negative logarithm of the EC50 (pEC50) was 7.62 in the experiment with SARS-CoV-2 replicon (setting [2]), 7.47 in the experiment with SARS-CoV-2 replicon, 7.17 in experiment [1] and 7.19 in experiment [1] (setting [3]).
For `CC(C)(C)[C@H](NC(=O)CCC(F)(F)F)C(=O)N1C[C@H]2[C@@H]([C@H]1C(=O)N[C@H](C#N)C[C@@H]1CCNC1=O)C2(C)C` [Compound 138], the figures for the pEC50 (with SARS-CoV-2 replicon (setting [2]); with SARS-CoV-2 replicon; in experiment [1] (setting [3])) were 6.48, 6.30 and 6.21, respectively.
The matching figures for `C/C(=C\C(=O)N[C@H](C(=O)N1C[C@H]2[C@@H]([C@H]1C(=O)N[C@H](C#N)C[C@@H]1CCNC1=O)C2(C)C)C(C)(C)C)C(F)(F)F` [Compound 140]: 6.46, 6.39 and 6.21.
For `CC(C)(C)[C@H](NC(=O)C(F)(F)Cl)C(=O)N1C[C@H]2[C@@H]([C@H]1C(=O)N[C@H](C#N)C[C@@H]1CCNC1=O)C2(C)C` [Compound 141], the negative logarithm of the EC50 (pEC50) with SARS-CoV-2 replicon (setting [2]) was 8.32; with SARS-CoV-2 replicon, 8.15; in experiment [1] (setting [3]), 7.17.
For the molecule `Cc1c(C)c(C)c(S(=O)(=O)N[C@H](C(=O)N2C[C@H]3[C@@H]([C@H]2C(=O)N[C@H](C#N)C[C@@H]2CCNC2=O)C3(C)C)C(C)(C)C)c(C)c1C` [Compound 142], the pEC50 is 6.80 in the experiment with SARS-CoV-2 replicon (setting [2]), 6.77 in the experiment on SARS-CoV-2 replicon and 6.55 in experiment [1] (setting [3]).
`CC(C)(C)[C@H](NC(=O)C1(C(F)(F)F)CC1)C(=O)N1C[C@H]2[C@@H]([C@H]1C(=O)N[C@H](C#N)C[C@@H]1CCNC1=O)C2(C)C` [Compound 151]: the pEC50 was 7.07 with SARS-CoV-2 replicon (setting [2]) and 6.68 in experiment [1] (setting [3]).

These data come from patent publication US11760722B2 (priority 2022, dated 2023).
